Reference: a melting point compilation (Tetko et al.; mined from patent text by program, amines drawn as free bases though some values may be those of a salt)

melting point | Structure (SMILES)
88.3 to 89 °C | CC1=C(C(O)c2ccc3c(c2)CCN(C(N)=O)C3)C(C)(C)CCC1 (configuration not stated)
> 250 °C | N#Cc1c(N)c2ccccc2[nH]c1=O
140 to 146 °C | CC(=O)OC1CCC(n2c(Br)nc3cc(Cl)c(Cl)cc32)C1OC(C)=O (configuration not stated)
163 to 165 °C | N#CNC(=O)[C@H](Cc1ccccc1)NC(=O)[C@@H]1CCC(=O)N1
138 to 140 °C | COC(=O)CCCC#Cc1cc(Cl)ccc1NS(=O)(=O)c1ccc2nc(NC(C)=O)sc2c1
172 to 174 °C | CC(C)(C)C(=O)Nc1ccc(C=CC(=O)N2CCc3c([nH]c4ccccc34)C2c2ccc3c(c2)OCO3)cc1 (configuration not stated)
160 °C | COc1ccc(-c2nc3cc(F)ccc3s2)cc1OC(=O)c1ccccc1
266 to 267 °C | COC(=O)c1cc(C(=O)Nc2ccncc2)c2cc(Cc3ccc(F)cc3)cnc2c1O
204 to 208 °C | Clc1cc(CCc2ccccn2)c2oc(-c3cn[nH]c3)nc2c1
261 to 262 °C | Cc1ccc([N+](=O)[O-])c(C=C2C(=O)NC(=O)N2C)c1
45 to 46 °C | CCOP(=O)(OCC)c1nc(N(CC)CC)nc(N(CC)CC)n1
> 200 °C | Nc1ncnc(N2CCc3ccccc3CC2)c1[N+](=O)[O-]
264 to 267 °C | Cc1nc2c3c(c(C(N)=O)cc2n1C)CCC(c1ccccc1)O3 (configuration not stated)
260 °C | Cc1c(-c2ccc(C#N)cc2)n[nH]c1C(=O)O
202 to 203 °C | COCc1c(-c2cc(C)no2)ncc2[nH]c3ccc(OCc4ccccc4)cc3c12
171 to 172 °C | CC(C)[C@H](CC(N)=O)NC(=O)OCc1ccccc1
123 to 124 °C | CCN(CC)C(=O)c1cc(-c2ccccc2)c2ccccc2c1
248 to 250 °C | CN(N=Cc1cnc[nH]1)C(=O)c1[nH]c2ccccc2c1-c1ccccc1
110 to 116 °C | N#Cc1ccc2ccc(CBr)cc2c1
131 to 134 °C | CCNC(=O)c1sc2ccccc2c1[Si](C)(C)C
141 to 143 °C | CN1C(=O)N(CC(CS(=O)(=O)c2ccc(Oc3ccc(C(F)(F)F)cc3)cc2)N(O)C=O)C(=O)C1(C)C (configuration not stated)
> 300 °C | NC(=O)c1cc2cc(OC(F)(F)F)cc(NS(=O)(=O)c3cccs3)c2[nH]1
101 °C | COc1cc(CO)c(-c2ccc(OCCC(C)CCCC(C)C)cc2)cc1CO (configuration not stated)
206 to 208 °C | CC(C)C(=O)Nc1ccc2oc3c(c2c1)CCCC3

melting point | Structure (SMILES)
140 to 142 °C | COC1CN(Cc2ccc(Nc3cc(-c4cccc(-n5ncc6cc(C(C)(C)C)cc(F)c6c5=O)c4CO)nn(C)c3=O)nc2)C1
> 300 °C | Cc1c(-n2ccnc2)n(CCOc2ccc(C(=O)O)cc2)c2ccccc12
202 to 203 °C | COc1ccc(-c2ccc3cnc(Nc4ccc5c(c4)N(S(C)(=O)=O)CCC5)nn23)cn1
180 to 182 °C | CCOC(=O)N1CCN(C(=O)c2sc(NC(C)=O)nc2CCc2ccc(NC(=N)N)cc2)CC1
118 to 120 °C | CCCC(=O)c1cnc2ccsc2c1Nc1ccccc1C(C)C
180 °C | CC(N)c1nnc(Cc2cccc3ccccc23)[nH]c1=O (configuration not stated)
40 to 43 °C | O=S(=O)(Cl)c1cccc2c1COC2
144 to 146 °C | O=C(Nc1ccc2ccc(-c3cccc(Br)c3)nc2n1)c1cccc(Br)c1
200 to 202 °C | N#Cc1cccc2c1CCC2=NO
192 to 194 °C | COc1cc(OC)cc(-c2ncoc2-c2ccc(OC(F)(F)F)c(O)c2)c1
258 to 259 °C | CC1(C)CCCC(C)(C)N1Cc1ccc2cc(NC(=O)c3ccc(-c4ccc(Cl)cc4)nc3)ccc2n1
184 to 185 °C | COc1ccc(OC)c(S(=O)(=O)N2CCC(N3N=C(c4ccc(OC)c(OC)c4)CCC3=O)CC2)c1
236 to 240 °C | O=C(CC(=O)c1ccc(-c2ccccc2)cc1)Nc1ccc(OCCN2CCCC2)c(C(=O)O)c1
98.5 to 102 °C | CNC1=NS(=O)N=C1NCCSCc1ccc(CN(C)C)s1 (configuration not stated)
128 to 129 °C | O=C(Cc1ccc2ccn(C3CCN(CCc4ccccc4F)CC3)c2c1)NCCO
93 to 94 °C | COc1cc(OCc2ccccn2)c(C=O)cc1-c1cccs1
148 to 156 °C | NC(CCC(=O)O)c1cccs1 (configuration not stated)
133 °C | CCCCCCC(=O)Nc1cccc2c1C(=O)c1ccccc1C2=O
142 to 144 °C | COc1ccc2c(ccc3cc(OC)c(OC)c(OC)c32)c1
140 °C | CC(C(=O)Nc1ccc(C(=O)c2cccs2)cc1)c1ccccc1 (configuration not stated)
133 to 135 °C | CC(=O)Nc1ccc(CN(C)C)c(O)c1
136 to 138 °C | C=Cc1cc(-c2ccc(S(C)(=O)=O)cc2)n(CC2CCCCC2)n1
116 to 118 °C | COC(=O)C=C(Nc1ccccc1C#N)C(=O)OC
301 °C | CCC=C1Cc2c(c(C)c(C)c3oc(C(=O)O)cc23)C1=O

melting point | Structure (SMILES)
55 °C | CCCCCCCCCCCCCCCCC#CCC(CO)CO
238 to 239 °C | COc1cc(OC)c2c(=O)cc(Oc3ccccc3)oc2c1C1CCN(C)CC1O (configuration not stated)
188 °C | O=C(O)c1c([N+](=O)[O-])ccc2c1OCCO2
74 to 77 °C | CCOC(=O)C(C#N)C(=O)c1cccn1C (configuration not stated)
90 to 91 °C | CCCN(CCC)C(=O)COc1nc(-c2ccccc2)nc(C)c1Cl
121 to 123 °C | CCCc1c(O)ccc2oc(Cc3ccc(F)cc3)c(C)c12
172 to 174 °C | CC(C)N1C(=O)NC(c2cccnc2)c2cc3c(cc21)OCO3 (configuration not stated)
106 °C | CCCC(=O)c1cccc(NC(=O)C=C(C)Cl)c1
76 to 77 °C | CC(C)CN(CC(C)C)C(=O)c1c(N)cccc1N
146 to 147 °C | CCn1cc(/C=C/c2cn(-c3ccccc3)nc2OCc2ccc(OCc3nc(-c4ccc(CC(=O)O)cc4)oc3C)c(OC)c2)cn1
88 to 89.5 °C | O=C1C=C(CCCCC#CCCCC#CCO)C(=O)c2ccccc21
112 to 118 °C | Cc1ccccc1C(=O)Nc1ccc(C(=O)N2c3ccccc3CCc3ccccc32)cc1
227 to 229 °C | N#CC12COc3cc(Cl)ccc3C1=NN(C(=O)Nc1ccc(C(F)(F)F)cc1)C2 (configuration not stated)
195 to 196 °C | CCOC(=O)c1ncn2c1cnc1ccccc12
252 to 254 °C | CN1CNC(=O)NC1=O
42 to 44 °C | CCCCCCc1cc(SC)ccc1O
238 to 241 °C | COc1nc(=O)n(-c2ccc(Cl)cc2)c(=O)[nH]1
160 °C | NC(=S)C1CCCc2cccnc21 (configuration not stated)
54 to 57 °C | Cc1cc(C)c2c(n1)CCCC2=O
286 to 288 °C | CCn1c(=O)c2nc(C=NO)cn2c2ccccc21
133 to 135 °C | c1cnc2ccc(Cn3nnc4ccc(-c5ccc(N6CCCCC6)nc5)nc43)cc2c1
138 to 139 °C | Cc1ncc([N+](=O)[O-])cc1C(=O)NC(=O)C(C)(C)C
243 to 245 °C | COc1ccc(C2C3=C(COC3=O)Nc3ccc4cn[nH]c4c32)cc1O (configuration not stated)
114 to 116 °C | Cc1cccc2c1nc(COc1ccc(Cl)cc1)n2CCC(C)CC1NCCc2ccccc21 (racemic)

melting point | Structure (SMILES)
237 to 238 °C | CCOC(=O)C(=O)Nc1nc2c(s1)C(=O)c1ccccc1-2
120 to 122 °C | Cc1ccc(N(C#N)C(=O)CCCCC(=O)N(C#N)c2ccc(C)cc2C)c(C)c1
74 to 75 °C | O=C(O)CCCCOc1ccccc1OCc1ccccc1
105 to 107 °C | Fc1cc2cc[nH]c2cc1Cl
57 to 58 °C | CCN(C(=O)N(C)C(=O)NC)c1ccccc1
228 to 230 °C | COc1cc2c(Nc3ccc(Sc4nccn4C)c(Cl)c3)c(C#N)cnc2cc1-c1ccc(CN2CCOCC2)c(CN2CCOCC2)c1
153 °C | O=CNCCN1CCC(Nc2nc3ccccc3n2Cc2ccc(F)cc2)CC1
94 to 97 °C | O=CNc1ccc(F)c(Cl)c1
> 300 °C | O=C(O)C1=Cc2cc(Cl)cc(-c3nc4ccccc4[nH]3)c2OC1C(F)(F)F (configuration not stated)
132 °C | Cc1c(C)c2c(c(C)c1O)CCC(C#N)(C(C)C)O2 (configuration not stated)
79 to 83 °C | O=C(O)C1Cc2ccccc2N1S(=O)(=O)c1ccc(-c2cc(C(F)(F)F)ccc2Cl)cc1 (configuration not stated)
128 to 131 °C | CCCc1cc(NC(=O)c2c(C)nn(C)c2C)c(C)c(-c2cc(CCC)c(C(C(F)(F)F)C(F)(F)F)cc2C)c1
254 °C | COc1ccc(CN2C(=O)C(C)(c3cc(NC(N)=O)ccc3Cl)c3cc(Cl)ccc32)c(OC)c1 (configuration not stated)
156 °C | Cn1c(C2CC2)nc2c(O)c(C(=O)[C@H](O)[C@@H](O)c3ccccc3)ccc21
64 to 65 °C | CCOC(=O)C(OCc1ccccc1)C(=O)c1cc(Cl)ccc1OCc1ccccc1 (configuration not stated)
243 °C | Cc1cc(-c2cnn3c(C(F)(F)F)cc(-c4ccc(C(F)(F)F)cc4)nc23)ccn1
152 to 154 °C | Cc1noc(C)c1COc1ccc(-c2cc(O)c(SCCc3ccccc3)c(=O)o2)cc1
150 to 152 °C | Cc1cc(NN)nc(-c2ccncc2)n1
184 °C | Cc1cccc(CC(=O)N2C[C@@H]3C(=O)CCC(c4ccccc4)(c4ccccc4)[C@@H]3C2)c1 (racemic)
90 to 94 °C | CC(C)(C)[Si](C)(C)O[C@@H]1C[C@]2(O)C[C@@H](OC2=O)[C@@H]1O
142 to 144 °C | Cn1c(CO)nc2cc(Br)cnc21
126 to 127 °C | Nc1ccc(-c2ncc(C(F)(F)F)cc2Cl)cc1[N+](=O)[O-]

Structure (SMILES) | melting point
CC(C)(C)Cc1cc(C2(N)CC2)no1 | 39 to 47 °C
CCN1CCc2c(c(Br)cc([N+](=O)[O-])c2NC(C)=O)C1 | 168 °C
CN(CCO)C(=O)Nc1ccc([N+](=O)[O-])c(C(F)(F)F)c1 | 180 to 181 °C
CC1N=C(c2ccccc2)c2cc(Cl)ccc2NC1=S (configuration not stated) | 250 °C
CC(=O)NCC(=O)N1CC1C#N (configuration not stated) | 102 to 104 °C
O=C1NCN(c2ccccc2)C12CCN(CCCn1c(=O)[nH]c3cccc(Cl)c31)CC2 | 258 °C
O=C(NC1N=C(c2ccccc2F)c2ccccc2NC1=O)c1ccc(Cl)cc1 (racemic) | 258 to 259 °C
CC12CC(CCF)C3C4CCC(=O)C=C4CCC3C1CCC2=O (configuration not stated) | 85 °C
